Test results as given in ChEMBL document CHEMBL4715879, “Total Synthesis of the Antitumor-Antitubercular 2,6'-Bijuglone Natural Product Diospyrin and Its 3,6'-Isomer” (J Nat Prod, 2020).

Experiments:
[1] = Inhibition of Mycobacterium tuberculosis DNA gyrase assessed as reduction in DNA supercoiled DNA formation incubated for 30 mins by […] analysis
[2] = Antiproliferative activity against mouse NS-1 cells assessed as reduction in cell viability after 48 hrs by resazurin dye based assay; format: functional; conditions: NS1, 48 h
[3] = Selectivity index, ratio of IC50 for cytotoxicity against human NFF cells to […] for antiproliferative activity against mouse NS-1 cells
[4] = test system: NFF; assay: Cytotoxicity against human NFF cells assessed as reduction in cell viability after 48 hrs by resazurin dye based assay
[5] = test system: NFF; assay: Cytotoxicity against human NFF cells assessed as reduction in cell viability at 1 mM after 48 hrs by resazurin dye based assay relative to control; conditions: 1000 µM

Compound	IC50 [1] [µM]	IC50 [2] [µM]	Ratio IC50 [3]	IC50 [4] [µM]	Activity [5] [%]
Cc1cc2c(c(O)c1-c1c(C)cc(O)c3c1C(=O)C=CC3=O)C(=O)C=CC2=O	100				
COc1cc(C)cc2c1C(=O)C=C(c1c(C)cc3c(c1OC)C(=O)C=CC3=O)C2=O		0.8	31	25.7	
Cc1cc(O)c2c(c1)C(=O)C=C(c1c(C)cc3c(c1O)C(=O)C=CC3=O)C2=O		1.8	14	31.8	
O=C(O)c1cn(C2CC2)c2cc(N3CCNCC3)c(F)cc2c1=O [CIPROFLOXACIN]	10				
Cc1cc(O)c2c(c1)C(=O)C(c1c(C)cc3c(c1O)C(=O)C=CC3=O)=CC2=O [DIOSPYRIN]	15	0.8	10	5.8	
O=c1[nH]cc(F)c(=O)[nH]1 [FLUOROURACIL]		2.8	>352		13
Cc1cc(O)c2c(c1)C(=O)C=C(c1c(C)cc(O)c3c1C(=O)C=CC3=O)C2=O [NEODIOSPYRIN]	50				
Cc1cc(O)c2c(c1)C(=O)C=CC2=O [RAMENTACEONE]		0.5	15	7.6	
